Experimental data reported in patent publication US20110160594A1 (priority 2008, published 2011).

Test system: Pyricularia oryzae
Type: cell-based
Details: liquid culture, incubation with compound 24-48 h

Compound	branch of the dendrogram of IR spectra (FIG. 8)
Fc1ccc([C@]2(Cn3cncn3)O[C@H]2c2ccccc2Cl)cc1 (racemic) [epoxiconazole]	third branch of the dendrogram
CO/C=C(/C(=O)OC)c1ccccc1Oc1cc(Oc2ccccc2C#N)ncn1 [azoxystrobin]	clustered together in the second branch
CCCCC(C#N)(Cn1cncn1)c1ccc(Cl)cc1 (stereo not drawn) [myclobutanil]	third branch of the dendrogram
CNC(=O)/C(=N/OC)c1ccccc1CO/N=C(C)/C(=N/OC)C(/C)=N/OC [orysastrobin]	clustered together in the second branch
COC(=O)N(OC)c1ccccc1COc1ccn(-c2ccc(Cl)cc2)n1 [pyraclostrobin]	clustered together in the second branch
propioconazole	third branch of the dendrogram
